Among the data in patent publication EP0521963B1, “CRF ANALOGS” (THE SALK INSTITUTE FOR BIOLOGICAL STUDIES, priority 1990, dated 1998) are EC50 values, retold here.

In this test the test system is cultured rat pituitary cells. As to the kind of experiment: Stimulation of secretion of ACTH and β-endorphin by cultured rat pituitary cells (procedure of Endocrinology, 91, 562 (1972)). The conditions noted are these: compared against synthetic oCRF, read-out: Half-maximal responses. Type of test: cell-based. From the text: This synthetic peptide is examined for its effects on the secretion of ACTH and β-endorphin in vitro and also in vivo.

For `CC[C@H](C)[C@H](NC(=O)[C@H](CC(=O)O)NC(=O)[C@H](CC(C)C)NC(=O)[C@H](CC(C)C)NC(=O)[C@H](CCCCN)NC(=O)[C@H](CCCNC(=N)N)NC(=O)[C@H](CC(N)=O)NC(=O)[C@H](CO)NC(=O)[C@H](Cc1c[nH]cn1)NC(=O)[C@H](C)NC(=O)[C@H](CCC(N)=O)NC(=O)[C@H](CCC(N)=O)NC(=O)[C@H](C)NC(=O)[C@H](CC(C)C)NC(=O)[C@H](CCC(N)=O)NC(=O)[C@H](CC(=O)O)NC(=O)[C@H](C)NC(=O)[C@H](CCCCN)NC(=O)[C@@H](NC(=O)[C@H](CCSC)NC(=O)[C@H](CCC(=O)O)NC(=O)[C@H](CC(C)C)NC(=O)[C@@H](NC(=O)[C@H](CCC(=O)O)NC(=O)[C@H](CCCNC(=N)N)NC(=O)[C@H](CC(C)C)NC(=O)[C@H](CC(C)C)NC(=O)[C@H](Cc1c[nH]cn1)NC(=O)[C@H](Cc1ccccc1)NC(=O)[C@@H](NC(=O)[C@H](CC(C)C)NC(=O)[C@H](CC(=O)O)NC(=O)[C@H](CC(C)C)NC(=O)[C@H](CO)NC(=O)[C@@H](NC(=O)[C@@H]1CCCN1C(=O)[C@@H]1CCCN1C(=O)[C@H](CCC(=O)O)NC(=O)[C@H](CCC(N)=O)NC(=O)[C@@H](N)CO)[C@@H](C)CC)[C@@H](C)O)C(C)C)[C@@H](C)O)C(=O)N[C@@H](C)C(N)=O` [oCRF], the EC50 is around 250 pM.
